Measurements taken from patent US5187187A, “Irreversible ligands for nonsteroidal antiinflammatory drug and prostaglandin binding sites” (Trustees of the University of Pennsylvania, priority 1991, dated 1993).

Legend:
3α-HSD [1] = molecular target: T1, 3α-HSD (Rattus norvegicus, UniProt P23457); assay: Competitive inhibition of androsterone oxidation catalyzed by 3α-HSD, initial velocity conditions, method of Dixon; type: biochemical; details: inhibition constants under initial velocity conditions, NADH formation at 340 nm, pH 7.0
T1 construct: The homogeneous 3α-HSD of rat liver cytosol; from tissue; host or cells: rat liver cytosol
T1 sequence (P23457 1-322): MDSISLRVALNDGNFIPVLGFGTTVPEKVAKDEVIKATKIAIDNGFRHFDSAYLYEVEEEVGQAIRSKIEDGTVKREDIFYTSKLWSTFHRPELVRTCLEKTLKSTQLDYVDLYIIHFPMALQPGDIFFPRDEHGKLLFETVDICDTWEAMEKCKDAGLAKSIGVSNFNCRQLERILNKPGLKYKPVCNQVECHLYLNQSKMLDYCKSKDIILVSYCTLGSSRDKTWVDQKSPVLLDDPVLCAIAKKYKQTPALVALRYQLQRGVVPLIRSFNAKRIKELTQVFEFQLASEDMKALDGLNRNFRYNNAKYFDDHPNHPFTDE
Protocol: Initial rates were determined spectrophotometrically by measuring the rate of NADH formation at 340 nM over 5 minutes in an assay containing 2.3 mM AND^+ in 0.1 M potassium phosphate buffer pH 7.0, with 4% acetonitrile (v/v) as a cosolvent in a 1 ml system. The assay was started by the addition of enzyme. […] From the slope of this plot, the Ki was determined.

3α-HSD [2] = molecular target: T1, 3α-HSD; assay: Time and concentration dependent inactivation of 3α-HSD, method of Kitz and Wilson; type: biochemical; details: for t1/2 life for the enzyme at saturating inactivator concentrations: Kitz and Wilson analysis; for Return of activity of inactivated enzyme by extensive dialysis: after inactivation; for Loss of 3α-HSD activity (inactivation): incubation of enzyme with inactivator; for KI (inactivation): independent determination from time dependent inactivation, 1/kapp vs 1/[Inhibitor], pH 7.0, read-out: Ki (Kitz and Wilson analysis of inactivation)
Protocol: The difference in the Ki 's determined from the two methods can probably be attributed to the difference in the binding order in the enzymatic mechanism.
Inactivation of […] (15 μM) was conducted in incubations (50 μl) of 10 mM potassium phosphate buffer pH 7.0 containing 1 mM EDTA and 4% acetonitrile as a cosolvent. Enzyme activity was followed over time by diluting an aliquot of the incubation mixture in a 1 ml assay containing 2.3 mM […] and 75 μM androsterone in 0.1 M potassium phosphate buffer, pH 7.0 containing 1 mM mercaptoethanol, with 4% acetonitrile as a cosolvent. Initial rates were determined as described in FIG. 1. Because of the 100 fold or greater dilution of the enzyme into the assay, the initial rate measured is an indication of the enzyme activity remaining at that time. Initial rates of inactivation (kapp 's) were determined from semilogarithmic plots of percent enzyme activity remaining versus time. Data was replotted (FIG. 2b) as 1 /kapp vs 1/[Inhibitor] from which kinact (the rate constant for enzyme inactivation) and Ki (the binding constant for compound (VII)) were determined.

[3] = in vivo; cited from earlier work

Row | Compound | Ki (3α-HSD [1]) [µM] | t1/2 life for the enzyme at saturating inactivator concentrations (3α-HSD [2]) [s] | Return of activity of inactivated enzyme by extensive dialysis (3α-HSD [2]) | Loss of 3α-HSD activity (inactivation) (3α-HSD [2]) | KI (inactivation) (3α-HSD [2]) [µM] | plasma t1/2 life [3] [s]
1 | COc1ccc2c(c1)c(CC(=O)O)c(C)n2Cc1ccc(NC(=O)CBr)cc1 [Compound (VI), 1-(4-bromoacetamidobenzyl)-5-methoxy-2-methylindole-3-aceticacid] | 15 | 40.2 | cannot be returned by extensive dialysis | time and concentration dependent loss of 3α-HSD activity | 233 | 
2 | O=C(CBr)Nc1ccc(Nc2ccccc2C(=O)O)cc1 [Compound (VII), N-(4-bromoacetamidophenyl) anthranilic acid] | 2.5 | 12.1 | cannot be returned by extensive dialysis | time and concentration dependent loss of 3α-HSD activity | 161 | 
3 | O=C(CBr)Nc1cccc(Nc2ccccc2C(=O)O)c1 [Compound (VIII), N-(3-bromoacetamidophenyl) anthranilic acid] | 1.5 | 7.1 | cannot be returned by extensive dialysis | time and concentration dependent loss of 3α-HSD activity | 155 | 
4 | COc1ccc2c(c1)c(CC(=O)O)c(C)n2C(=O)c1ccc(Cl)cc1 [Indomethacin (I), indomethacin, reference compound] | 0.835 |  |  |  |  | 
5 | Cc1ccc(Cl)c(Nc2ccccc2C(=O)O)c1Cl [Meclofenamate (II), meclofenamic acid, reference compound] | 1.1 |  |  |  |  | 
6 | Cc1ccc(C(=O)c2ccc(CC(=O)O)n2C)cc1 [Tolmetin (IV), tolmetin, reference compound] | 29 |  |  |  |  | 
7 | CC(=O)Oc1ccccc1C(=O)O [aspirin, acetyl salicylate] |  |  |  |  |  | 900
